Source: US8722052B2, “Vaccinia virus protein A46 peptide and use thereof” (priority 2008, dated 2014)
Ends that are not written are not given here.

Legend:
Mal = target: T1, Mal (Homo sapiens, UniProt P58753); experiment: His peptide pulldown of overexpressed Flag-Mal from HEK293_T lysates; assay type: binding; conditions: 25 μM His-peptide, Ni-agarose beads, 2 hr at 4° C.
T1 construct: expressed in transfected cells; host or cells: HEK293_T, lysed in 1% NP-40 buffer
Experimental: (§1) HEK293_T cells were seeded in 6 well plate (1.5×10^5 cells/ml) 24 hours before transfection with 1 μg/well Flag-Mal and 2 μg/well Flag-TRAM encoding plasmids. The total amount of plasmid DNA transfected into the cells was made up to […] by adding pcDNA. 24 hours post-transfection cells were lysed in 1% NP-40 lysis buffer containing 20 mM imidazole. The experimental lysates were incubated with 25 μM His-A464 peptide ((H-H-H-H-H-H-[…]) (SEQ ID NO. 66) and 40 μL of Ni-agarose beads for 2 hr at 4° C. Control samples were incubated with either beads only or beads and 25 μM His-A467 peptide (H-H-H-H-H-H-[…]) (SEQ ID NO. 67). After incubation beads were washed 5 times in lysis buffer with imidazole. Proteins were resolved by SDS-PAGE, and transferred membranes immunoblotted for Flag. Data is representative of four experiments; and
(§2) HEK293_T cells were seeded in 6 well plates (1.5×10^5 cells/ml) 24 hours before transfection. 8 μl of GeneJuice was mixed with 32 μl of serum-free DMEM (SFM) per transfection and incubated for 5 min at room temperature before adding 1 μg per transfection of Flag-Mal or 2 μg of Flag-TRAM encoding plasmid DNA. GeneJuice/SFM/DNA mixture was then incubated for 15 min at room temperature before adding to the cells. […] The signal was read using Odyssey Infrared Imaging System, LI-COR® Biosciences.

TRAM = target: T2, TRAM (Homo sapiens, UniProt Q86XR7); experiment: His peptide pulldown of overexpressed Flag-TRAM from HEK293_T lysates; assay type: binding; conditions: 25 μM His-peptide, Ni-agarose beads, 2 hr at 4° C.
T2 construct: expressed in transfected cells; host or cells: HEK293_T, lysed in 1% NP-40 buffer
Experimental: as §1, §2

[1] = peptide solubility (observation)
TLR4 = assay type: cell-based, human; conditions: THP-1; peptide 20 or 40 μM 1 h before 100 ng/ml LPS; 6 h
[2] = tested on: LPS-induced inflammatory mediators; conditions: Tsung et al, 2007; cited from earlier work
TLRs = experiment: TLR responses in human cells; assay type: cell-based
[3] = tested on: bacterial-induced inflammation; conditions: murine model; McCoy et al, 2005; cited from earlier work

T1 sequence (P58753 whole entry): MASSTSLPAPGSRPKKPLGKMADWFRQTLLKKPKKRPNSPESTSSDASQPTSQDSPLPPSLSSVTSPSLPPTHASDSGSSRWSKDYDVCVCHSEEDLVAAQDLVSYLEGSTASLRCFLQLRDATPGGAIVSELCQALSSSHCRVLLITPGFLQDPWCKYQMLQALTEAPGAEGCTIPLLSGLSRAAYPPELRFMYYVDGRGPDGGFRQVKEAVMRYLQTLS
T2 sequence (Q86XR7 whole entry): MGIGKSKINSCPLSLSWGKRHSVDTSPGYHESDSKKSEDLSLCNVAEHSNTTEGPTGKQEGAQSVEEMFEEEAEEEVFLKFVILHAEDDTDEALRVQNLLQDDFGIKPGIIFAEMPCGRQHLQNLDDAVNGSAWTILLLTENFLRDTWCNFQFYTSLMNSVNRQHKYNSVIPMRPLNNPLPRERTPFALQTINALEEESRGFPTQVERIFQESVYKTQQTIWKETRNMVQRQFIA
TLR4, sequence (O00206 24-839): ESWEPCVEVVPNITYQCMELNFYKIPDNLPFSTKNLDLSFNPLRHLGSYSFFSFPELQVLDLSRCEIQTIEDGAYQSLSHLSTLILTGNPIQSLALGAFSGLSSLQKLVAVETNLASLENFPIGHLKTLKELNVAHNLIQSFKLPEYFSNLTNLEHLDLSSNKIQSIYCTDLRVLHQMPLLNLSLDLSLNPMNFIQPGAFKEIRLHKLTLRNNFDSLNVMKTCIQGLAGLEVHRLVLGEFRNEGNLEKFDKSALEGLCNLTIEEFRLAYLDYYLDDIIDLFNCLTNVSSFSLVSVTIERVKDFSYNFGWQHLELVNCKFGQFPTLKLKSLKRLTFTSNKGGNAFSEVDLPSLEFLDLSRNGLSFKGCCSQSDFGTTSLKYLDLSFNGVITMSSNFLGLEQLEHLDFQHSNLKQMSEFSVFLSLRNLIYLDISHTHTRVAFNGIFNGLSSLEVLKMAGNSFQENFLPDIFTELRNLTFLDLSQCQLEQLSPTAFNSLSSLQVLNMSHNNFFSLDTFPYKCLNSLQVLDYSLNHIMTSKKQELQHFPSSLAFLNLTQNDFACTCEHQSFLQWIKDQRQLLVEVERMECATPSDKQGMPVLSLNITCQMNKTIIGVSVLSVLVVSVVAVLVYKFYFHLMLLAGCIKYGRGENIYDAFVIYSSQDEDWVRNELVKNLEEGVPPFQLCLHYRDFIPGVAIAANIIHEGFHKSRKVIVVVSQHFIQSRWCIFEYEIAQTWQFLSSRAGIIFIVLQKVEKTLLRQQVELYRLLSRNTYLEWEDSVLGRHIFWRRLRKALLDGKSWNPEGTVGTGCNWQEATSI
TLR4, sequence (Q9Y6Y9 17-160 partner limits assumed): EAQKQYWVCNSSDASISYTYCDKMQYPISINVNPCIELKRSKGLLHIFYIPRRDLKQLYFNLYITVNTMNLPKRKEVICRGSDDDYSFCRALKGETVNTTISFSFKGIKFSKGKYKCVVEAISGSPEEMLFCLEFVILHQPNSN

H-H-H-H-H-H-KYSFKLILAEY (HHHHHHKYSFKLILAEY) [His-A464]
pulldown of overexpressed Mal (Mal): capable of pulling down overexpressed Mal or TRAM
pulldown of overexpressed TRAM (TRAM): capable of pulling down overexpressed Mal or TRAM

H-H-H-H-H-H-RNTISGNIYSA [His-A467]
pulldown of overexpressed Mal (Mal): not
pulldown of overexpressed TRAM (TRAM): not

KYSFKLILAAYRRRRRRRRR [Peptide E10A, KYSFKLILAAY-9R]
solubility of the peptide [1]: insoluble

P13 (DIVKLTVYDCIRRRRRRRRR) [Peptide P13]
inhibition of LPS-induced TNFα production (TLR4): even at a high dose of 40 μM, was ineffective at inhibiting TLR4
reduction of LPS-induced inflammatory mediators in mice [2]: can reduce
ability to block TLR responses in human cells (TLRs): unable to block TLR responses in human cells
reduction of in vivo bacterial-induced inflammation [3]: can reduce
